Several values for one entry are separate records, joined by “and”; a condition that tells them apart may be missing. Equal entries are not always repeated. Where two headings read alike, the source gives them in different places.
Legend:
[1] = target: T1, human 19S regulatory particles (Homo sapiens, UniProt P54578+Q9Y5K5); assay: 19S regulatory particle de-ubiquitinase assay (ub-AMC); format: biochemical; conditions: 19S 2.9 nM; ub-AMC 1 μM; read-out: IC50, deubiquitinase activities of the 19S regulatory particles
T1 construct: purchased Boston Biochem
Description: Figure 2 (a) b-AP15 inhibited the 19S regulatory particles. The activity of human 19S regulatory particles (Boston Biochem) was determined in the presence of the fluorogenic substrate ub-AMC and various concentrations of b-AP15 as indicated using a reported assay condition. RFU denotes the relative fluorescence units of the reactions; (b) Inhibitory effect of b-AP15 on the chymotrypsin-like activity of the 20S proteasome. BG in the figure denotes background.
The de-ubiquitinase activities of the human 19S regulatory particles (proteasome) (Boston Biochem, Boston, MA, USA) were determined in the presence of the fluorogenic substrate ub-AMC (Boston Biochem) and various concentrations of b-AP15 using the reported assay condition. The reaction buffer used contained 25 mM HEPES, 50 mM NaCl, 10 mM MgCl2, 2 mM ATP, and 1 mM DDT. The human 19S regulatory particles and the substrate ub-AMC were used at a final concentration of 2.9 nM, and 1 μM, respectively. The proteolysis reaction rate was monitored using a BioTek fluorometer (Winooski, VT, USA).

[2] = target: T2, 20S proteasome, chymotrypsin-like activity (Homo sapiens, UniProt P28074); assay: 20S proteasome assay, chymotrypsin-like activity (Suc-LLVY-AMC); format: biochemical; parameters: purchased Calbiochem; conditions: for IC50: Suc-LLVY-AMC 20 μM, mean ± SD, three assays
Description: (§1) Proteasome assay kits were purchased from Calbiochem, San Diego, CA. The effect of the proteasome inhibitors on the 20S proteasome activities was assayed following the protocols provided by the manufacturer. The major components of the assay mixture are the human 20S proteasome, fluorogenic peptide substrates and a proteasome activator. […] The concentrations of the proteasome activators used, PA28, PALAME, and SDS were 2 μg/mL, 19 μM, and 0.03% (V/V), respectively.
(§2) The trypsin-like and caspase-like activities of the 20S proteasome were determined using the fluorogenic substrates Bz-VGR-AMC (20 μM) and (Z)-LLEbNA (20 μM), respectively. Fluorescence generated from the proteolytic reaction in the presence of various concentrations of the inhibitors was measured using a BioTek fluorometer. […] The value of IC50 is expressed as mean ± standard deviation from three independent assays using CalcuSyn (Biosoft, Cambridge, UK).

[3] = tested on: 20S proteasome; parameters: method as in PMID 22057347; conditions: 50 μM; SDS as activator; cited from earlier work
[4] = tested on: proteasome of HeLa Ub^G76V-GFP cells; assay: Cell-based proteasome inhibition assay (Ub-GFP accumulation); conditions: 24 h
Description: It was shown that b-AP15 at 50 μM inhibited the deubiquitination by the 19S regulatory particle, but not the 20S proteasome in in vitro enzymatic assays. […] HeLa Ub^G76V-GFP cells express ubiquitin-green fluorescent protein (Ub-GFP), which is efficiently degraded by the proteasome. HeLa Ub^G76V-GFP cells accumulate Ub-GFP in the presence of proteasome inhibitors. […] Some of the HeLa Ub^G76V-GFP cells turned green in the presence of b-AP15 at a concentration as low as 0.32 μM (Figure 1b). […] Ub-YFP was accumulated in the MelJuSo Ub-YFP cells at a b-AP15 concentration as low as 0.7 μM [12].
Figure 1 b-AP15 inhibited the proteasome of HeLa ubiquitin-green fluorescent protein (Ub^G76V-GFP) cells. HeLa Ub^G76V-GFP cells were treated with b-AP15 at 0.95 μM (a,d); 0.32 μM (b,e), or no b-AP15 (c,f) for 24 h, where (a), (b), and (c) are fluorescence microscopic images; (d), (e), and (f) are regular phase contrast images of the cells.
HeLa Ub^G76V-GFP cells (kindly provided by Nico P. Dantuma, Karolinska Institutet, Stockholm, Sweden) were cultured in DMEM medium supplemented with 10% fetal calf serum, 100 units/mL of penicillin, and 100 µg/mL of streptomycin. […] The green fluorescence emitted by the treated HeLa Ub^G76V-GFP cells was then observed and documented with a Nikon fluorescent microscopic system.

[5] = tested on: 19S regulatory particle; parameters: method as in PMID 22057347; conditions: 50 μM; cited from earlier work
[6] = tested on: multiple myeloma; parameters: method as in PMID 24319254; conditions: human xenograft mouse model; cited from earlier work
[7] = tested on: MelJuSo Ub-YFP reporter cell line; parameters: method as in PMID 22057347; conditions: MelJuSo Ub-YFP cells; cited from earlier work
[8] = target: T3, human 20S proteasome, trypsin-like activity (Homo sapiens, UniProt Q99436); assay: 20S proteasome assay, trypsin-like activity (Bz-VGR-AMC); format: biochemical; conditions: activator PA28; Bz-VGR-AMC 20 μM; read-out: IC50, trypsin-like activity of PA28-activated 20S proteasome
T3 construct: purchased Calbiochem
Description: as §1, §2

[9] = target: T4, human 20S proteasome, caspase-like activity (Homo sapiens, UniProt P28072); assay: 20S proteasome assay, caspase-like activity ((Z)-LLEbNA); format: biochemical
T4 construct: purchased Calbiochem
Description: as §1, §2

[10] = target: T2, 20S proteasome, chymotrypsin-like activity; assay: HPLC analysis of the substrates and products of the 20S proteasome; format: biochemical; conditions: 0, 2.4, 9.6, 38 μM; PA28 11 μg/mL; 6 h, room temperature
Description: b-AP15 is highly chromogenic with a conjugated π-bonding system that could potentially be quenching the emitted fluorescence from proteasome cleavage of the substrate. To eliminate the possible effect of quenching by b-AP15, we used HPLC to analyze the substrate and cleaved products, AMC (P1) and Suc-LLVY (P2), after the enzyme reactions. The ratio of P/S was used to express the relative amount of reaction product formation under the assay conditions, where P represents the products and S represents the substrate Suc-LLVY-AMC (S). […]
Figure 3 Inhibition of the chymotrypsin-like activity of the 20S proteasome. The reaction products of the 20S proteasome, AMC (P1), Suc-LLVY (P2), and substrate Suc-LLVY-AMC (S) were analyzed by HPLC. P1/S and P2/S are the ratios of the reaction products and the substrate calculated from the area under the curve of the HPLC profiles.
b-AP15 at various concentrations (0, 2.4, 9.6, and 38 μM) was incubated with the 20S proteasome (4.3 nM), substrate (Suc-LLVY-AMC, 0.2 mM), and PA28 (11 μg/mL) at room temperature for 6 h. […] The reaction products, AMC (P1), Suc-LLVY (P2), and substrate Suc-LLVY-AMC (S) in the filtrate were analyzed using reverse phase HPLC with a gradient of increasing acetonitrile/water ratio. […]

With `C=CC(=O)N1C/C(=C\c2ccc([N+](=O)[O-])cc2)C(=O)/C(=C/c2ccc([N+](=O)[O-])cc2)C1` [b-AP15] the IC50 [1] was 15.2 µM, the inhibition at 48 µM ([2]; 48 μM, 0.03% SDS as activator, read-out: Inhibition of the chymotrypsin-like activity of the SDS-activated 20S proteasome) was < 50% and the IC50 ([2]; activator PA28 2 μg/mL, read-out: IC50, chymotrypsin-like activity of the 20S proteasome activated by PA28) was 18.1 ± 3.22 µM. The IC50 ([2]; activator PALAME 19 μM, read-out: IC50, chymotrypsin-like activity of the 20S proteasome activated by PALAME) was 26 µM and 26.3 µM, the IC50 ([2]; activator SDS 0.03%, read-out: IC50, chymotrypsin-like activity of the 20S proteasome activated by SDS) was > 48 µM and the “Inhibition of the 20S proteasome” value [3] was “did not inhibit”. For the same compound, the “Accumulation of Ub^G76V-GFP and/or GFP in cells” value ([4]; 0.95 μM) was “accumulation of Ub^G76V-GFP and/or GFP in majority of the cells”, the “Lowest concentration at which some cells turned green” value ([4]; fluorescence microscopy) was 0.32 µM and the “Inhibition of deubiquitination by the 19S regulatory particle” value [5] was “inhibited”. For the same compound, the Anti-multiple myeloma activity [6] was “anti-multiple myeloma activity”, the “Lowest concentration at which Ub-YFP was accumulated” value [7] was 0.7 µM and the IC50 [8] was 40.6 ± 5.23 µM. For the same compound, the IC50 ([9]; activator PA28, (Z)-LLEbNA 20 μM, read-out: IC50, caspase-like activity of PA28-activated 20S proteasome) was > 48 µM, the “Effect on the caspase-like activity” value ([9]; up to 48 μM, PA28-activated) was “did not significantly affect” and the “Formation of the two cleaved products AMC (P1) and Suc-LLVY (P2) by HPLC” value [10] was “inhibited the formation of the two cleaved products in a dose dependent manner”.

From PMC4279163, “Inhibitory Effect of b-AP15 on the 20S Proteasome” (Biomolecules, 2014)
